Assay results published in ChEMBL document CHEMBL1149697, “Identification of dissociated non-steroidal glucocorticoid receptor agonists” (Bioorg Med Chem Lett, 2007).

Tests used:
Glucocorticoid receptor = biological target: T1, Glucocorticoid receptor (Homo sapiens, UniProt P04150)
T1 sequence (P04150 whole entry): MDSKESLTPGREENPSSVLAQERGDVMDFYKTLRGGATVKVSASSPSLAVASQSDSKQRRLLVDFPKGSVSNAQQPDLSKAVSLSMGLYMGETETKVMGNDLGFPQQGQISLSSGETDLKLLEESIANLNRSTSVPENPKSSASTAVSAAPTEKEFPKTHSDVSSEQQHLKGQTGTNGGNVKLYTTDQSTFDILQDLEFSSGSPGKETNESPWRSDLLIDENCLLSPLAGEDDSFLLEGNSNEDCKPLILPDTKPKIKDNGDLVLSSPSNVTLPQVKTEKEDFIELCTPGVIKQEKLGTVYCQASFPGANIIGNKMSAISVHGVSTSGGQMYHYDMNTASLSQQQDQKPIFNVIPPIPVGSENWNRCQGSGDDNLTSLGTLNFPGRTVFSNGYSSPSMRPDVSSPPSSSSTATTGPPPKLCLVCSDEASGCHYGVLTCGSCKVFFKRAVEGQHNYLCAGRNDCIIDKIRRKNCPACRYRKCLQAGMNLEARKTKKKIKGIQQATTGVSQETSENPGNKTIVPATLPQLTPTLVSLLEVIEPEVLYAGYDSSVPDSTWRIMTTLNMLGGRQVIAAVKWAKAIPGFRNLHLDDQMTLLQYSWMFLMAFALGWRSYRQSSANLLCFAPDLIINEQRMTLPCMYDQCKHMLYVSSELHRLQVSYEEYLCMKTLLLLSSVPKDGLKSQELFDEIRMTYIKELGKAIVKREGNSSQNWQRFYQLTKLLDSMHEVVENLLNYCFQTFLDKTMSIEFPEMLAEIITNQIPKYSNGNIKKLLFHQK

HFF [1] = assay: Antiinflammatory activity assessed as upregulation of aromatase in HFF cells by transactivation assay; format: functional, cell-based; conditions: Homo sapiens
Progesterone receptor = biological target: T2, Progesterone receptor (Homo sapiens, UniProt P06401); assay: Displacement of TAMRA labeled mifepristone at human progesterone receptor in insect cell
T2 sequence (P06401 whole entry): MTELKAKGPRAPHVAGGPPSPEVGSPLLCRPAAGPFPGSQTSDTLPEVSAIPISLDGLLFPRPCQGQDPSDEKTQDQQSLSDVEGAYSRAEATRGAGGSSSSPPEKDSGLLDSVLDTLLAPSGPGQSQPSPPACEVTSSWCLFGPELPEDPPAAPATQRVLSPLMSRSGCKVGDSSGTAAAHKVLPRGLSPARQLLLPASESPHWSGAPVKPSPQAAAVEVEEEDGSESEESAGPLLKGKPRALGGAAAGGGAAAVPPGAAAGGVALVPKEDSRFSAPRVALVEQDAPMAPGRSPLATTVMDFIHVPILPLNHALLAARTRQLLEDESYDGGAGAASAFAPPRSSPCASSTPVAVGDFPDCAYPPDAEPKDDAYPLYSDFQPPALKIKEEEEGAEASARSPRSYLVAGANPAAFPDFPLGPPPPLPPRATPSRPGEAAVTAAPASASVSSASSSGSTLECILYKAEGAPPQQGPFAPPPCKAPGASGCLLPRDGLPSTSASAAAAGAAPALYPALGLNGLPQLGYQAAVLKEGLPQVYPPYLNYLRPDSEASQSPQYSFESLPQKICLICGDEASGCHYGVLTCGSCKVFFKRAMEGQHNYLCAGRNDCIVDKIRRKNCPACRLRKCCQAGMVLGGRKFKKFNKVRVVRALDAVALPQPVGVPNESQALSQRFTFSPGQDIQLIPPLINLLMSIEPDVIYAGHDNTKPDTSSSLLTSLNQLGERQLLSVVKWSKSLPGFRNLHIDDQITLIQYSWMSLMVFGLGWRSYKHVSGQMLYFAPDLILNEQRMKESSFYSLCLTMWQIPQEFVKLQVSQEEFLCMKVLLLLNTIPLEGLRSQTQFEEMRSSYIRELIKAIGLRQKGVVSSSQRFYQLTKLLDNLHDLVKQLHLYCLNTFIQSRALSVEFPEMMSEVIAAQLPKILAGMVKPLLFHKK

HFF [2] = assay: Antiinflammatory activity assessed as upregulation of aromatase in HFF cells by transactivation assay relative to dexamethasone; format: functional, Homo sapiens; parameters: concentration or dose not given beside the values
[3] = biological target: T3, Mineralocorticoid receptor (Homo sapiens, UniProt P08235); assay: Displacement of TAMRA labeled dexamethasone at human mineralocorticoid receptor in insect cell
T3 sequence (P08235 whole entry): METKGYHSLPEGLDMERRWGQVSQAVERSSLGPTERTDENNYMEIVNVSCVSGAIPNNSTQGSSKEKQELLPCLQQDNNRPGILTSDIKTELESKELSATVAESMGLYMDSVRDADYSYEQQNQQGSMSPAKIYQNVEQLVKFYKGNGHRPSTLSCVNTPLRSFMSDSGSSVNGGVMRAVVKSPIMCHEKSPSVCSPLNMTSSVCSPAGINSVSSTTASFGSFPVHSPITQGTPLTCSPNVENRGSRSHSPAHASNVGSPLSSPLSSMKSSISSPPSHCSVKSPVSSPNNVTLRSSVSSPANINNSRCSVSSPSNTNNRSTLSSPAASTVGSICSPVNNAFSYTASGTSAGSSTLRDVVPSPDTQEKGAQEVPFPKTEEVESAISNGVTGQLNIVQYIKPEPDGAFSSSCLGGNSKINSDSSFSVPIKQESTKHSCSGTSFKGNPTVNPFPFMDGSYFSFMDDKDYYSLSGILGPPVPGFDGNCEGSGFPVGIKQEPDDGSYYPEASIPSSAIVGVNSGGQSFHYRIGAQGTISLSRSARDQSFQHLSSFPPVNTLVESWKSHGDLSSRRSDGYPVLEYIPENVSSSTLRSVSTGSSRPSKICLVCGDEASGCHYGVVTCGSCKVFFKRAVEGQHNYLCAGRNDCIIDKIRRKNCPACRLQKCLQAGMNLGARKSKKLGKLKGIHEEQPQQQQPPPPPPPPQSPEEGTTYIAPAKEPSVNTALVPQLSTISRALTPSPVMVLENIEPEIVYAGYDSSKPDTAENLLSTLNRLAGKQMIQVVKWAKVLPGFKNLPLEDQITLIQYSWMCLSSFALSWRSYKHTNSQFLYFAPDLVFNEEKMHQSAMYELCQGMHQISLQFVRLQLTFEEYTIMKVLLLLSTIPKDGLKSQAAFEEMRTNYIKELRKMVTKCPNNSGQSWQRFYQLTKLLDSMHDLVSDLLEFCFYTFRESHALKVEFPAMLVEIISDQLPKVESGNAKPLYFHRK

HFF [4] = assay: Antiinflammatory activity assessed as inhibition of IL6 production in HFF cells by transrepression assay relative to dexamethasone; format: functional, Homo sapiens
HFF [5] = assay: Antiinflammatory activity assessed as inhibition of IL1 stimulated IL6 production in HFF cells by transrepression assay; format: functional, cell-based; conditions: Homo sapiens
Homo sapiens = organism: Homo sapiens; assay: Selectivity ratio of human GR over human PR

## COc1ccc(F)cc1C(C)(C)CC(O)(Cc1ccc(C#N)c2ccccc12)C(F)(F)F (centres undefined)
Glucocorticoid receptor
  IC50: 0.021 µM
HFF [1]
  EC50: 0.26 µM
Progesterone receptor
  IC50: 0.325 µM
HFF [2]
  Activity: 103%
[3]
  IC50: 0.43 µM
HFF [4]
  Efficacy: 92%
HFF [5]
  EC50: 0.07 µM

## COc1ccc(F)cc1C(C)(C)CC(O)(C(=O)Nc1ccc2c(=O)onc(C)c2c1)C(F)(F)F (centres undefined)
HFF [1]
  EC50: > 2 µM
HFF [2]
  Activity: 0%
HFF [4]
  Efficacy: 20%
HFF [5]
  EC50: > 2 µM

## COc1ccc(F)cc1C(C)(C)CC(O)(Cc1cc(C)cc(C)c1)C(F)(F)F (centres undefined)
Glucocorticoid receptor
  IC50: 0.055 µM
HFF [1]
  EC50: 0.285 µM
Progesterone receptor
  IC50: > 0.354 µM
HFF [2]
  Activity: 80%
[3]
  IC50: 0.22 µM
HFF [4]
  Efficacy: 55%
HFF [5]
  EC50: 0.28 µM

## COc1ccc(F)cc1C(C)(C)CC(O)(Cc1ccc(C#N)cc1F)C(F)(F)F (centres undefined)
Glucocorticoid receptor
  IC50: 0.022 µM
HFF [1]
  EC50: 0.66 µM
Progesterone receptor
  IC50: 0.28 µM
HFF [2]
  Activity: 15%
[3]
  IC50: 0.5 µM
HFF [4]
  Efficacy: 40%
HFF [5]
  EC50: > 2 µM

## COc1ccc(F)cc1C(C)(C)CC(O)(Cc1cc(Cl)cc(C#N)c1)C(F)(F)F (centres undefined)
Glucocorticoid receptor
  IC50: 0.027 µM
HFF [1]
  EC50: 4.75 µM
Progesterone receptor
  IC50: > 2 µM
HFF [2]
  Activity: 53%
[3]
  IC50: 0.73 µM
HFF [4]
  Efficacy: 46%
HFF [5]
  EC50: > 2 µM

## COc1ccc(F)cc1C(C)(C)CC(O)(Cc1cc(C)c(C#N)c(C)c1)C(F)(F)F (centres undefined)
Homo sapiens
  Ratio IC50: 35
Glucocorticoid receptor
  IC50: 0.011 µM
HFF [1]
  EC50: 0.008 µM
Progesterone receptor
  IC50: 0.39 µM
HFF [2]
  Activity: 115%
[3]
  IC50: 0.3 µM
HFF [4]
  Efficacy: 95%
HFF [5]
  EC50: 0.004 µM

## COc1ccc(F)cc1C(C)(C)CC(O)(Cc1ccc(C#N)cc1)C(F)(F)F (centres undefined)
Glucocorticoid receptor
  IC50: 0.03 µM
HFF [1]
  EC50: > 2 µM
Progesterone receptor
  IC50: 0.345 µM
HFF [2]
  Activity: 0%
[3]
  IC50: 0.51 µM
HFF [4]
  Efficacy: 0%
HFF [5]
  EC50: > 2 µM

## COc1ccc(F)cc1C(C)(C)CC(O)(Cc1ccc(C#N)cc1Cl)C(F)(F)F (centres undefined)
Glucocorticoid receptor
  IC50: 0.017 µM
HFF [1]
  EC50: 0.03 µM
Progesterone receptor
  IC50: 0.14 µM
HFF [2]
  Activity: 20%
[3]
  IC50: 0.32 µM
HFF [4]
  Efficacy: 60%
HFF [5]
  EC50: 0.02 µM

## COc1ccc(F)cc1C(C)(C)CC(O)(Cc1cc(C)cc(Cl)c1)C(F)(F)F (centres undefined)
Glucocorticoid receptor
  IC50: 0.046 µM
HFF [1]
  EC50: 0.245 µM
Progesterone receptor
  IC50: > 2 µM
HFF [2]
  Activity: 80%
[3]
  IC50: 0.94 µM
HFF [4]
  Efficacy: 79%
HFF [5]
  EC50: 0.125 µM

## COc1ccc(F)cc1C(C)(C)CC(O)(Cc1cc(C)cc(C)c1C#N)C(F)(F)F (centres undefined)
Homo sapiens
  Ratio IC50: 225
Glucocorticoid receptor
  IC50: 0.008 µM
HFF [1]
  EC50: 0.25 µM
Progesterone receptor
  IC50: 1.8 µM
HFF [2]
  Activity: 75%
[3]
  IC50: 0.25 µM
HFF [4]
  Efficacy: 83%
HFF [5]
  EC50: 0.04 µM
